# Reference: patent US7186695B2 (priority 2001, dated 2007)
# “Also recorded” adds a separate entry of the source.
# Assays:
# [1] = biological target: T1, Human recombinant PDI (Homo sapiens, UniProt P07237); assay: Incorporation of GSAO-B into purified protein, streptavidin-peroxidase blot; type: binding
# T1 construct: made in house; host or cells: E. coli
# Method: (§1) FIG. 14. Interaction of GSAO-B with PDI and thioredoxin. A Structure of GSAO-B. B Purified human recombinant PDI (5 μM), human recombinant thioredoxin (5 μM) or bovine serum albumin (5 μM) was incubated with dithiothreitol (10 μM) for 60 minutes at room temperature to ensure that the active site disulfide(s) of PDI and thioredoxin were in the reduced dithiol form. GSAO-B (100 μM) or GSAO-B and DMP (400 μM) was then added and the reactions incubated for 30 minutes at room temperature. The labelled PDI (lanes 1 and 2), thioredoxin (lanes 3 and 4) and albumin (lane 5) (75 pmoles) was resolved on […] SDS-PAGE, transferred to PVDF membrane, and blotted with streptavidin-peroxidase to detect the GSAO-B label. The positions of Mr markers are shown at left.
# (§2) Human recombinant PDI and thioredoxin bound GSAO-B (FIG. 14). Recombinant human protein disulfide isomerase (PDI) was produced in E. coli and purified according to Jiang et al. (1999). In the experiment, purified PDI, thioredoxin or albumin as negative control were incubated with a 2-fold molar excess of dithiothreitol for 60 minutes to ensure that the active site disulfides of PDI and thioredoxin were in the reduced dithiol state. The proteins were then incubated with GSAOB or GSAO-B and a 4-fold molar excess of DMP for 30 minutes. Equivalent moles of the labelled proteins were resolved on SDS-PAGE, transferred to PVDF membrane, and blotted with streptavidin-peroxidase to detect the GSAO-B label. Samples were resolved on 4–15% SDS-PAGE under non-reducing conditions (Laemmli, 1970) and transferred to PVDF membrane. Proteins were detected by Western blot using an anti-PDI murine monoclonal antibody (Jiang et al., 1999) (used at 2 μg per mL). Rabbit anti-mouse horseradish peroxidase conjugated antibodies (Dako Corporation, Carpinteria, Calif.) were used at 1:2000 dilution. GSAO-B-labelled proteins were blotted with streptavidin peroxidase (Amersham, Sydney, NSW) used at 1:1000 dilution. […] Chemiluminescence films were analysed using a GS-700 Imaging Densitometer and Multi-Analyst software (Bio-Rad, Hercules, Calif.).
# [2] = biological target: T2, Thioredoxin (Homo sapiens, UniProt P10599); assay: as above; type: binding; details: GSAO-B 100 μM, protein 5 μM, 30 minutes
# T2 construct: purchased American Diagnostica, Greenwich, Conn; host or cells: E. coli
# T2 sequence (P10599 1-105): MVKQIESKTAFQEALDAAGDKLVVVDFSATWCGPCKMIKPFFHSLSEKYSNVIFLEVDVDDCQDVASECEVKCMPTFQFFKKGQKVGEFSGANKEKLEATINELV
# Method: as §1, §2
# [3] = biological target: bovine serum albumin (Bos taurus, UniProt P02769); assay: Incorporation of GSAO-B into purified protein, streptavidin-peroxidase blot (negative control protein); type: binding; details: GSAO-B 100 μM, protein 5 μM, 30 minutes
# Method: as §1
# Human recombinant PDI and thioredoxin bound GSAO-B (FIG. 14). Recombinant human protein disulfide isomerase (PDI) was produced in E. coli and purified according to Jiang et al. (1999). […] Proteins were detected by Western blot using an anti-PDI murine monoclonal antibody (Jiang et al., 1999) (used at 2 μg per mL). […] Chemiluminescence films were analysed using a GS-700 Imaging Densitometer and Multi-Analyst software (Bio-Rad, Hercules, Calif.).
# [4] = system: HMEC-1 or HUVE cells; assay: Labelling of endothelial cell surface proteins with GSAO-B; type: cell-based, human; details: GSAO-B 100 μM, 30 minutes
# Method: FIG. 16. Identification of endothelial cell surface proteins that contain closely spaced dithiol(s). A The surface of HMEC-1 or HUVE cells (2×10^6 cells in 0.4 mL) was labelled with GSAO-B (100 μM) for 30 minutes at room temperature in the absence (lanes 1 and 3) or presence of DMP (400 μM) (lane 2). The endothelial cells were lysed and the lysate from both incubations was resolved on 4–15% SDS-PAGE, transferred to PVDF membrane, and blotted with streptavidin peroxidase to detect the GSAO-B label. The results represent labelling of 3×10^4 HMEC-1 (lanes 1 and 2) of HUVE cells (lane 3). The positions of Mr markers are shown at left. B Densitometry profile of the surface labelled proteins (lanes 1 and 3). The apparent Mr's of the individual proteins are indicated.
# Human umbilical vein endothelial cells (HUVEC) (Wall et al., 1978) and the human dermal microvascular endothelial cell line, HMEC-1 (Ades et al., 1992), were harvested and cultured as indicated. […] Bound proteins were washed 5 times with 50 mM Tris/HCl, pH 8 buffer containing 0.15 M NaCl and 0.05% Triton X-100, resolved on SDS-PAGE, transferred to PVDF membrane, and the GSAO-B-labelled proteins detected by Western blot.
# [5] = system: PDI on the endothelial cell surface; assay: GSAO-B labelling of cell surface PDI, streptavidin-agarose pull-down and anti-PDI blot; type: cell-based, bovine; details: GSAO-B 100 μM, absence of DMP
# Method: FIG. 17. PDI was one of the GSAO-B labelled proteins on the endothelial cell surface. HUVEC (5×10^6 cells in 0.75 mL) were labelled with GSAO-B (100 μM) for 30 minutes at 37° C. in the absence (lanes 1) or presence of DMP (400 μM) (lane 2). The cells were lysed and incubated with streptavidin-agarose beads to collect the biotin-labelled proteins. The labelled proteins were resolved on 4–15% SDS-PAGE, transferred to PVDF membrane, and blotted with anti-PDI monoclonal antibodies. The results represent labelling of 5×10^6 endothelial cells. The positions of Mr markers are shown at left.
# BAE cells were labelled with GSAO-B in the absence or presence of DMP, lysed and incubated with streptavidin-agarose beads to collect the biotin-labelled proteins. The labelled proteins were eluted from the beads, resolved on SDS-PAGE, transferred to PVDF membrane, and blotted with anti-PDI polyclonal antibodies.
# [6] = system: BAE cells; assay: cells; details: Bos taurus, Endothelial cell, 24 h, read-out: IC50 for viability
# T1 sequence (P07237 18-508): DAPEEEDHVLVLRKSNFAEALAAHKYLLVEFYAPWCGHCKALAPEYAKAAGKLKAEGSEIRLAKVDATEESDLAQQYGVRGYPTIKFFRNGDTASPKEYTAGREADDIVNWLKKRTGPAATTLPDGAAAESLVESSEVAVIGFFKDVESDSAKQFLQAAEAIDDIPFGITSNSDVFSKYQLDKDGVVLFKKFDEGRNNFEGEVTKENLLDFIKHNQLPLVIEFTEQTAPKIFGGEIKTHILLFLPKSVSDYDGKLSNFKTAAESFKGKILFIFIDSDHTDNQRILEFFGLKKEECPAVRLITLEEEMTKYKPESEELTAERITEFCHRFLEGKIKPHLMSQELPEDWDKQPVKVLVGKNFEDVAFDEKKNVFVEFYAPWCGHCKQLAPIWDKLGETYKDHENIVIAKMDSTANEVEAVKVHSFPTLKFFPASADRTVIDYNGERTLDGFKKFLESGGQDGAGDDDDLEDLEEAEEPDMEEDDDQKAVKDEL
# bovine serum albumin, sequence (P02769 25-607): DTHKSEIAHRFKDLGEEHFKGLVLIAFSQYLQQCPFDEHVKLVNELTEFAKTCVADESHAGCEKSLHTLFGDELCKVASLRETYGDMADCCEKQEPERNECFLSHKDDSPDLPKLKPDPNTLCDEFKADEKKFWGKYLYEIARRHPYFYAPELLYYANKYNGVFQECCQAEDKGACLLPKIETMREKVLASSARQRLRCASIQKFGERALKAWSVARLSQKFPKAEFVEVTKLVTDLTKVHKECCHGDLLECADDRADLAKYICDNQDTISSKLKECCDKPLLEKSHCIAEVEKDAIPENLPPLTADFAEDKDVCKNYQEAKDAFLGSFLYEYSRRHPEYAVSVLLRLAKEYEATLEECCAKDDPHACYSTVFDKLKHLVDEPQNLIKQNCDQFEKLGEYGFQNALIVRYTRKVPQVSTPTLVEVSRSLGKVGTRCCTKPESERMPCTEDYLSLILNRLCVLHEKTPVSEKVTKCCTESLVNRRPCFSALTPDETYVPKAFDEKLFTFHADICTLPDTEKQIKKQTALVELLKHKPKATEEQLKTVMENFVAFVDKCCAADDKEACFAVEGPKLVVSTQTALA
compound,measurement,setting,value
4-(N-(S-(N-(6-(N-(6-(N-(biotinoyl)-amino)hexanoyl)amino)hexanoyl)glutathiony)acetyl)amino)phenylarsenoxide [GSAO-B],incorporation of GSAO-B,"[1]; GSAO-B 100 μM, protein 5 μM, 30 minutes",bound GSAO-B; also recorded: incorporated GSAO-B
same,density of labelling of PDI relative to thioredoxin,[1]; equivalent moles of labelled proteins,approximately twice
same,incorporation of GSAO-B,[2],bound GSAO-B; also recorded: incorporated GSAO-B
same,incorporation of GSAO-B,[3],albumin did not
same,proteins on the endothelial cell surface that incorporated GSAO-B,[4],approximately ten proteins
same,labelling of cell surface PDI by GSAO-B,[5],PDI was one of the proteins on the endothelial cell surface that incorporated GSAO-B
"O=[As]c1ccc(NC(=O)CSCCC(=O)N[C@@H](CC(=O)O)C(=O)O)cc1 (stereo partly drawn) [AspAO, N-(3-(4-arsenoso-phenylcarbamoylmethylthio)propanoyl)-L-aspartic acid]",IC50,[6],< 1 µM
"O=[As]c1ccc(NC(=O)CSCCC(=O)N[C@@H](CS(=O)(=O)O)C(=O)O)cc1 (stereo partly drawn) [Cys*AO, N-(3-(4-arsenosophenylcarbamoylmethylthio)propanoyl)-L-cysteic acid]",IC50,[6],< 10 µM
"O=[As]c1ccc(NC(=O)CSCCC(=O)N[C@H]2C(O)O[C@H](CO)[C@@H](O)[C@@H]2O)cc1 (stereo partly drawn) [GlcAO, N-(3-(4-arsenosophenylcarbamoylmethylthio)propanoyl)-D-glucosamine]",IC50,[6],< 1 µM
"O=[As]c1ccc(NC(=O)CSCCC(=O)N[C@@H](CCC(=O)O)C(=O)O)cc1 (stereo partly drawn) [GluAO, N-(3-(4-arsenosophenylcarbamoylmethylthio)propanoyl)-L-glutamic acid]",IC50,[6],< 10 µM
